This note sets out measurements from ChEMBL document CHEMBL3045494, “Inhibitory effect and structureactivity relationship of some Biginelli-type pyrimidines against HSV-1” (Med Chem Res, 2013).

Data set [1] deals with Human alphaherpesvirus 1. The data set can be described thus: Antiviral activity against Human herpesvirus 1 strain KOS infected Vero cells at 20 umol/L incubated at 2 hr post-infection measured after 70 hr by plaque reduction assay. The data set is classed as functional, organism-based. Background: Plaque reduction counts the foci of infection that form in a cell layer.
Data set [2] concerns Human alphaherpesvirus 1. The data set can be described thus: Antiviral activity against Human herpesvirus 1 strain KOS infected Vero cells at 20 umol/L incubated for 4 hr prior to infection measured after 72 hr by plaque reduction assay. The format is functional, organism-based.
Data set [3] concerns Human alphaherpesvirus 1. The data set can be described thus: Antiviral activity against Human herpesvirus 1 strain KOS infected Vero cells after 72 hr by plaque reduction assay. The format is functional, organism-based. As to conditions: Human alphaherpesvirus 1, KOS, Vero, 72 h.
Data set [4] concerns Human alphaherpesvirus 1. The data set can be described thus: Antiviral activity against Human herpesvirus 1 strain KOS infected Vero cells at 20 umol/L incubated for 2 hr prior to infection measured after 72 hr by plaque reduction assay. The data set is classed as functional, organism-based.
In data set [5] the test system is Human alphaherpesvirus 1. The data set can be described thus: Antiviral activity against Human herpesvirus 1 strain KOS infected Vero cells at 20 umol/L incubated immediately after infection for 72 hr by plaque reduction assay. The data set is classed as functional, organism-based.
A short description of data set [6]: (§1) Cytotoxicity against Chlorocebus aethiops (African green monkey) Vero cells after 72 hr by XTT assay. The format is cell-based. As to conditions: chlorocebus sabaeus, Vero cells. Background: Tetrazolium assays rely on reduction of a dye to a coloured formazan, in cell work by metabolically active cells.
In another data set the test system is Vero. Described as §1. The data set is classed as cell-based. To be noted: chlorocebus sabaeus, vero, 72 h.
Data set [7] in a line: Therapeutic index, ratio of CC50 for African green monkey Vero cells to IC50 for Herpes simplex virus 1 KOS. The data set is classed as cell-based. As to conditions: read-out: Ratio CC50/IC50.
In data set [8] the test system is Human alphaherpesvirus 1. The experiment in a line: Antiviral activity against Human herpesvirus 1 strain KOS infected Vero cells at 20 umol/L incubated at 4 hr post-infection measured after 68 hr by plaque reduction assay. The data set is classed as functional, organism-based.
Data set [9] is described as follows: Selectivity index, ratio of CC25 for African green monkey Vero cells to IC25 for Herpes simplex virus 1 KOS. The format is toxicity, cell-based. As to conditions: read-out: Selectivity Index.

SMILES strings stand for the structures. Active and inactive are the calls of the source. The calls are words filed in the database; no cut-off is given here.

As usually defined, the IC25 is the point of the concentration-response curve where the effect stands at 25%. For orientation: IC50 means the concentration at which inhibition is half-maximal. As usually defined, the CC50 is the concentration at which the toxic effect on the cells reaches its halfway point.

Regarding `COC(=O)C1=C(C)NC(=O)NC1c1ccc(Br)cc1` (stereo unspecified), the outcome with Human alphaherpesvirus 1 [1] and in the data set on Human alphaherpesvirus 1 [8] was Active. For the same compound, the outcome in the data set with Human alphaherpesvirus 1 [2], in the data set on Human alphaherpesvirus 1 [4] and in the data set with Human alphaherpesvirus 1 [5] was inactive. Also, the IC25 with Human alphaherpesvirus 1 [3] is 0.1 µM. In the data set with Human alphaherpesvirus 1 [3] (read-out: IC50), the IC50 is 900 nM. Further, in data set [6], the CC50 at 72 h was 100 µM. For the same compound, the CC25 in the data set with Vero came out at 12.3 µmol/L. In addition, the results for the selectivity ratio in data set [7] and in [9] were 111 and 123, respectively.
